Entries after “also recorded” stand apart in the source; their conditions may differ.
Columns and labels:
[1] = test system: 4T1Br4 mammary tumor cells; experiment: 4T1Br4 triple negative breast cancer model in BALB/c mice, oral gavage treatment
Description: Light to ten-week-old BALB/c mice (Charles River Laboratories; total of 48 mice) are orthotopically injected with 25,000-50,000 4T1Br4 mammary tumor cells in 100 microliters unilaterally into 4th mammary fat pad. Primary tumor growth was monitored by caliper measurements and biweekly body weight and wellness checks. When tumor size reached 0.5-0.7 cu cm, animals were divided into 4 experimental groups: 1) No Treatment (n=8), 2) Single OFZ Treatment (n=8), 3) Single CMP Treatment (n=16), 4) Combination CMP and OFZ/PBZ Treatment (n=16). Treatments started at 2 weeks post cancer cell inoculation. The following are the oral gavage doses: OFZ, 5 mg/kg; PBZ, 9 mg/kg; FBZ, 10 mg/kg; CMPs 10 mg/kg. All drugs are dissolved in sterile saline and final gavage volume is 200 microliters per mouse. […] When primary tumors reach 1 cu cm, they were excised under general anesthesia for all groups except for half of the animals in single CMP and combination CMP and BZ treatments. For those groups, half of the animals in each of these drug treatments received tumor excision surgery and for the remaining half, the primary tumors are untouched throughout the course of the experiment. Primary tumor size, percentage tumor growth compared to pre-treatment baseline, body weights and survival were assessed. Upon death, necropsy was conducted to assess metastatic tumor growth in distal organs. […] Treatment started 2 weeks past orthotopic cancer cell inoculation. […] Values are represented as means+SEMs.
Treatment started 2 weeks post-cancer cell inoculation. […] Data are represented as group averages+SEMs.
Measures were averaged for each week and represented as Means+SEMs. Treatment started two weeks post-inoculation with cancer cells.
Necropsy was then conducted on the animals that expired for assessment of gross metastasis in lungs, brain and liver that may be responsible for expiration of mice. Detailed necropsy was performed and archived for each animal.

[2] = cited from earlier work
MDA-MB-231 cells = experiment: three-dimensional spheroid multi-parametric assay, MDA-MB-231; type: cell-based, human; conditions: MDA-MB-231 spheroids, 24 h; for activity / potency in cell line (image analysis, FIG. 4): average of three experiments
Description: (§1) MDA-MB-231 or MDA-MB-468 cells were plated on a black plate with clear bottom low adherence spheroid 384-well tissue culture plate (Corning 3830; Corning NY) at a concentration of 1,500 cells per well in ice-cold complete media without phenol red containing 2.5% matrigel (BD Biosciences, Billerica, MA) in a final volume of 30 μL/well and allowed to adhere for 24 hours. After confirming the formation of a spheroid, 30 μL of medium containing treatment at two times the final concentration was added. Treatments consisted of 10, 5, 2.5 or 1.25 μM oxfendazole (OFZ), 5, 2.5, 1.25 or 0.625 μM parbendazole (PBZ) or a combination 10/5, 5/2.5, 2.5/1.25 or 1.25/0.625 μM OFZ/PBZ. Controls included 10 μM ABT737, 5 μg/mL 5-fluorouracil, 0.5 μg/mL doxorubicin, media alone, and solvent controls. Solvent for drug treatments was 10% DMSO by weight. Cells were incubated with treatment for 24 h. At the end of this incubation 20 μL/well of a staining mixture containing 2 drops/mL NucBlue Live Cell Stain Hoechst 33342 (Molecular Probes, Eugene, OR), 5 μM CellEvent™ Caspase-3/7 Green Detection Reagent (Molecular Probes, Eugene, OR) and […] 7-amino-actinomycin D (7AAD; Sigma, St. Louis, MO) were added and allowed to incubate for 3 h. Cells were fixed with 4% paraformaldehyde by weight. Images were acquired using the ImageXpress® Micro XLS widefield HCS (Molecular Devices, Sunnyvale, CA), with a 10× Plan Fluor objective, binning at 2 and focusing on plate bottom, then offset by bottom thickness. A stack of 8 images separated by 10 μm starting at the well bottom and covering approximately the lower half of each spheroid were acquired. The best focus projection of this stack was analyzed using the Multi-Wavelength Cell Scoring Module of the MetaXpress 5.1.0.3 software (Molecular Devices, Sunnyvale, CA). The results were plotted using Microsoft excel (Redmond, WA). To normalize results, the solvent control values were subtracted from the 7AAD and the Caspase 3 percent positive results for treatment samples. Total cell count was expressed as a percentage comparing treatments to respective solvent controls. Compounds were tested in duplicate within plates. The in vitro effectiveness of BZs, either singly or in combination on tumor cytotoxicity using MDA-MB468 human breast cancer cell line spheroids was assessed.
FIG. 3 illustrates the in vitro effectiveness of BZs, either singly or in combination on tumor cytotoxicity using MDA-MB4231 human breast cancer cell line spheroids. […] Images were analyzed to determine cell counts based on DNA (Hoechst 33342 stain; blue), those dying through apoptosis by following cleavage of caspase 3, and cells dead or dying as measured by the loss of their membrane integrity (7-aminoactinomycin; red). […]

MDA-MB-468 cells = experiment: three-dimensional spheroid multi-parametric assay, MDA-MB-468; type: cell-based, human; conditions: MDA-MB-468 spheroids, 24 h; for activity / potency in cell line (image analysis, FIG. 2): average of three experiments
Description: Controls included 10 μM ABT737, 5 μg/mL 5-fluorouracil, 0.5 μg/mL doxorubicin, media alone, and solvent controls. After treatments, cells were labeled with the cell permeable nuclear stain Hoechst 33342, a marker for cleaved caspase 3/7, and the cell impermeable nucleic acid stain 7AAD for three hours. Cells were fixed then images acquired using a high content imager at 10× magnification. Scale bars represent 200 μm. The experiment was repeated 3 times.
as §1, with “assessed. […]” for “assessed.”

[3] = cited from earlier work; remark: listed apart in the source

Structure (SMILES)	time of expiration / euthanasia of representative mouse ([1]; days post cancer cell inoculation) [days]	lung metastasis at necropsy ([1]; gross necropsy)	cause of death of group ([1]; necropsy, listed as OFZ Alone)	angiogenesis at tumor / excision site ([1]; representative mouse)	splenomegaly ([1]; representative mouse, necropsy)	body weight across treatment weeks (FIG. 7) ([1]; tumor-bearing mice, measured biweekly)	survival at 6th week of treatment (animals remaining) ([1]; week 6 of treatment)	plasma half-life ([2]; in animals) [h]	tolerability / toxicity ([2]; in vivo)	caspase cleavage (induction of apoptosis) (MDA-MB-231 cells)	activity / potency in cell line (image analysis, FIG. 4) (MDA-MB-231 cells)	death by loss of membrane integrity (7AAD) (MDA-MB-468 cells)	activity / potency in cell line (image analysis, FIG. 2) (MDA-MB-468 cells)	time to peak blood levels ([3]; after oral administration) [h]	time to full recovery of liver function after cessation of treatment ([3]; transient liver function suppression) [weeks]	caspase 3/7 cleavage (MDA-MB-468 cells)
COC(=O)Nc1nc2ccc([S+]([O-])c3ccccc3)cc2[nH]1 (stereo not shown) [OFZ, (5-(phyenylsulphinyl)-18-benzimidazole-2yl) carmabic acid methyl ester]	32	extensive metastases in the mouse lungs	expired entirely due to lung metastasis; also recorded: metastatic process in the lungs as cause of death	angiogenesis is visible	instances of splenomegaly	significant decline in bodyweight measurements	deceased	8.5 to 11	extremely well-tolerated with no known toxicity	caused caspase cleavage	more modest activity	favoring death by loss of membrane integrity	active			
CCCCc1ccc2nc(NC(=O)OC)[nH]c2c1 [PBZ, N-(6-butyl-1H-benzimidazol-2-yl) carbamic acid methyl ester]										caused caspase cleavage	statistically significantly more potent than OFZ		active; also recorded: statistically significantly more potent than OFZ	6 to 8	≤ 2	caused more caspase cleavage
